In patent publication US20250003953A1, “Methods and Model Systems for Assessing Therapeutic Properties of Candidate Agents and Related Computer Readable Media and Systems” (The Regents of the University of California, priority 2021, published 2025):

Key:
[1] = tested on: KRAS.G12C cell lines in a cell pool; test: GENEVA pool gene set expression after drug, in vitro; assay type: cell-based, human; conditions: post-drug treatment
From the text: The GENEVA datasets were compared where GENEVA pools were drugged with the KRAS.G12C inhibitor ARS1620, conducted both in vitro and in vivo. Specifically, the in vitro data were compared against the in vivo data to look for differences and similarities attributable to the context of the model systems used. […] As a validation study, a combination therapy multi-arm in vivo mouse study was designed to test the efficacy of an EMT inhibitor, Galunisertib in combination with ARS1620.
For in vivo and in vitro datasets, we combined the median z score results determined in Example 8 and t-test results, respectively, were combined on a paired geneset by geneset basis. The combined zscore results table from both in vivo and in vitro was then used to calculate an “in vivo Specificity Score” as follows:
For each geneset, “in vivo Specificity Score”=[(in vivo median zscore)−(in vitro median zscore)]/mean([log 10 (in vivo pvalue), log 10 (in vitro pvalue)]

[2] = tested on: GENEVA cell pool of cell lines; test: GENEVA cell pool drug sensitivity by relative cell counts from single-cell RNA sequencing; assay type: cell-based, human; conditions: pre/post drug treatment relative cell counts from GENEVA pools
From the text: This example is directed at discovery of genetic drivers of sensitivity to a drug compound by way of simultaneous inference of phenotype from a GENEVA cell pool. Long-duration growth balanced cell pools were created and subjected to drug treatment. After assignment to patient of origin and drug treatment condition using genetic demultiplexing using the method as described in Example 5 and sample hashing demultiplexing as described in Example 6, datasets were obtained with discrete numbers of cells in each drug treatment condition as evidenced in FIG. 2A,B,C,D,E,F. The relative number of viable cells remaining in each drug treatment condition for each cell type was counted and this drug sensitivity information was used as the response variable for a linear model. […]
The number of cells in each drug condition were counted according to the origin cell type. […]
fitness for cell type Ci against Drug Dx based on proportional representation was calculated as: […]
For each drug or vehicle Dx, the total number of cells was counted in each condition, the geometric mean of the total cell counts was calculated, and the total number of cells in each condition was divided by the geometric mean of the cell counts to obtain a normalization ratio. […]
For each of these fitness calculations, the relative fitness was calculated as: […]

[3] = tested on: KRAS.G12C cell lines in a cell pool; test: GENEVA pool gene set expression after drug, in vivo; set-up: species or system mouse; conditions: post-drug treatment
Description: 2 mL of Matrigel Basement Membrane reagent was added to the GENEVA pool prepared by growth rate balancing for a final concentration of 20M/mL. One hundred microliters of this solution was injected into NSG mice in a flank xenograft injection. Twenty-four hours later, mice harboring GENEVA tumors were drugged with the drug compound in a vehicle solution of 5% DMSO, 95% Labrasol. Mice were dosed by oral gavage four fourteen days with five days on, two days off. On the fourteenth day, mice were sacrificed, tumors harvested by homogenization with surgical shears and resuspended in 5 mg/mL Liberase™ Cell Dissociation Reagent in 1:1 DMEM: F12 cell media, DNAse I (10 U/uL). Tumors were incubated in a 37° C. incubator with shaking at 600 RPMs for 45 minutes for enzymatic dissociation and then spun down at 800 g for 5 minutes at 4° C. Dissociated tumors were resuspended in 100 uL 1×PBS.
The GENEVA datasets were compared where GENEVA pools were drugged with the KRAS.G12C inhibitor ARS1620, conducted both in vitro and in vivo. Specifically, the in vitro data were compared against the in vivo data to look for differences and similarities attributable to the context of the model systems used. […]
For in vivo and in vitro datasets, we combined the median z score results determined in Example 8 and t-test results, respectively, were combined on a paired geneset by geneset basis. […]

[4] = tested on: KRAS.G12C cell line H2030; test: Lipid peroxidation by KRAS inhibitors in KRAS.G12C line; assay type: cell-based, human
Description: (§1) FIG. 7B plots gene expression of anti-ferroptotic genes for each cell line in response to increasing ARS1620 dosage.
(§2) Using a lipid peroxidation live cell probe, lipid peroxidation—one of the hallmark phenotypes of ferroptosis—was measured in response to ARS-1620 treatment.

H2030 (KRAS.G12C) cells = test: Seahorse assay measuring oxygen consumption; assay type: cell-based, human; conditions: 2 h after treatment
[5] = tested on: tumors from KRAS.G12C, EML4-ALK, and TH21 lung cancer patients; test: GENEVA pools of PDX models, relative survival by genotype; assay type: in vivo, human; conditions: PDX GENEVA pool
From the text: Higher confidence metrics are noted in the dotted line, or Noise Corrected Algorithm results.
GENEVA pools of PDX models were created for a long term drug treatment assay. Tumors were implanted in vivo and in organoids, and tumors from KRAS.G12C, EML4-ALK, and TH21 lung cancer patients were drugged in GENEVA pools. Significant drug sensitivity was found in EML4-ALK patient greater than sensitivity of KRAS.G12C mutant tumors indicating EML4-ALK patient tumors would respond to a KRAS.G12C inhibitor (FIG. 9B).

H2030 (KRAS.G12C) = test: Mitochondrial content with Mitotracker Deep Red FM in long term drug tolerant line; assay type: cell-based, human; conditions: 30 day treatment, 10 uM; drug-persistent vs parental H2030
KRAS.G12V cell line H441 = test: Lipid peroxidation by KRAS inhibitors in non-KRAS.G12C line; assay type: cell-based, human
Description: as §1, §2

C=CC(=O)N1CCN(c2ncnc3c(F)c(-c4c(O)cccc4F)c(Cl)cc23)CC1 [ARS1620]
endothelial-mesenchymal transition hallmark gene expression signature [1]: showed no difference in vitro
relative sensitivity of individual cell types (most sensitive cell lines) [2]: KRAS.G12C mutant harboring
endothelial-mesenchymal transition hallmark gene expression signature [3]: increased in vivo
lipid peroxidation [4]: increased lipid peroxidation
oxygen consumption / mitochondrial respiration (H2030 (KRAS.G12C) cells): significant difference in functional oxygen consumption
relative survival of genotype under treatment or vehicle [5]: EML4-ALK as the most drug sensitive tumor type
mitochondrial content after long term treatment (H2030 (KRAS.G12C)): mitochondria are significantly ablated
lipid peroxidation (KRAS.G12V cell line H441): this effect was significantly muted
